Results from ChEMBL document CHEMBL4387793, “Styrenes from the Seeds of Atalantia monophylla” (J Nat Prod, 2019).

Legend:
[1] = tested on: HepG2; assay: Cytotoxicity against human HepG2 cells by SRB assay; assay type: functional, cell-based
[2] = Cytotoxicity against human KKU-M156 cells by SRB assay; assay type: functional, cell-based

Row | SMILES | IC50 [1] [µM] | IC50 [2] [µM]
1 | COc1cc(OC)c(/C=C/[C@H](C)c2c(OC)cc(OC)cc2OC)c(OC)c1 | < 10 | < 10
2 | COc1cc(OC)c([C@H]2CC[C@H]2c2c(OC)cc(OC)cc2OC)c(OC)c1 | < 10 | < 10
3 | COc1cc(OC)c2c(c1)O[C@@H](c1c(O)cc(OC)cc1OC)C[C@@H]2C | < 10 | < 10
4 | COc1cc(OC)c2c(c1)O[C@@H](c1c(OC)cc(OC)cc1OC)C[C@@H]2C | < 10 | < 10
